Target: T1, streptavidin (Streptomyces avidinii, UniProt P22629)
T1 construct: purchased Sigma-Aldrich
Assay: Competitive inhibition of streptavidin capture on biotin-PDTF by free biotin
Type: binding
Settings: streptavidin preincubated 30 min with free biotin; chip 0.25 pmol/monolayer biotin (1% biotin-PDTF)
From the text: The remaining free protein (in this case streptavidin) concentration in solution can then be estimated with the MILD-MALDI-MS approach.
The surfaces were allowed to air dry.

Q: With O=C(O)CCCC[C@@H]1SC[C@@H]2NC(=O)N[C@@H]21 [biotin] as the molecule, how does the “free biotin excess over streptavidin at which competition is clearly seen” value read?
A: 100 -fold
